In patent US20050026911A1, “Benzotriazapinone salts and methods for using same” (priority 2003, published 2005):

Tests used:
[1] = target: T1, human gastrin (CCK2) receptors (Homo sapiens, UniProt P32239); test: [125I]-BH-CCK-8S binding at human gastrin (CCK2) receptors cloned into an NIH3T3 cell line; conditions: for Ki: read-out: pKi ± s.e.mean (converted); for pKi ± s.e.mean: displacement of [125I]-BH-CCK-8S, hCCK2R NIH3T3 clone 7 cell membranes
T1 construct: amplified by PCR (polymerase chain reaction) from the start codon to the stop codon; expressed in transfected cells
T1 sequence (P32239 1-447): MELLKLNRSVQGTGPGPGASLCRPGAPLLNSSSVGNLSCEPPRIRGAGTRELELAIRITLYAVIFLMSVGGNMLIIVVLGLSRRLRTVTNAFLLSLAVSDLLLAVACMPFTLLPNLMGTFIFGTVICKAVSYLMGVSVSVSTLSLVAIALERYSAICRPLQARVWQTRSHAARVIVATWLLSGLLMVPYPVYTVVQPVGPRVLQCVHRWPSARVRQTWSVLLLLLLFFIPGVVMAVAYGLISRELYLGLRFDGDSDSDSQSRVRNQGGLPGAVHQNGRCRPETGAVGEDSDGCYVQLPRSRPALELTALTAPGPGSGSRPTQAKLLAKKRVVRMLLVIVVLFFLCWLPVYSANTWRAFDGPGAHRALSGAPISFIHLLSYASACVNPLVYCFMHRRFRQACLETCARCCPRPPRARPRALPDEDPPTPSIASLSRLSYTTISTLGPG
Protocol: NIH3T3 cells from (ECACC) were cultured in Dulbecco's modified Eagle's medium (DMEM) (Invitrogen), containing 2 mM Glutamax I (Invitrogen), 10% heat inactivated newborn calf serum (Invitrogen). Cells (4×10^5) were seeded into 35 mm×10 mm dishes (Corning) and transfected using the Transfast™ reagent (Promega Corp.) according to the manufacturers instructions using 10 μg of the hCCK2R plasmid DNA at a ratio of 1:1 (DNA:Transfast™ reagent). Untransfected cells and cells transfected with vector only were also prepared as controls. After 48 h the cells were trypsinised using standard techniques (Culture of Animal Cells, A Manual of Basic Techniques 4th Ed, R. Ian Freshney) and dilutions were plated on 35 mm×10 mm dishes in media containing 800 μg/ml G-418 (Invitrogen). Cells were selected for 2 weeks until individual, separate colonies appeared. […] Using cloning rings and trypsinisation, according to standard techniques (Culture of Animal Cells, A Manual of Basic Techniques 4th Ed, R. Ian Freshney), individual colonies were picked from plates containing cells transfected with the vector only and cells transfected with the hCCK2R plasmid construct. The cells were expanded and analysed by radioligand binding analysis (see below).
Cultured clone 7 cells were stored as frozen pellets at −70° C. until required. Cell pellets were thawed in CCK2 assay buffer ((mM): 10 Hepes; 130 NaCl; 5 MgCl2; 4.7 KCl; 1 EGTA (pH7.2 at 21° C.) with 0.125 g Bacitracin added to each litre), and homogenised using a Polytron (4×1 s). The resulting membrane preparation was centrifuged at 39,800 g for 15 min at 4° C. Each cell pellet was re-suspended in fresh buffer and re-centrifuged as above. The final pellet was re-suspended by homogenisation (Teflon-in-glass), to the appropriate membrane concentration.
The assays were terminated by rapid filtration through pre-soaked Whatman GF/B filters which were washed (3×3 ml) with ice-cold 50 mM Tris HCl (pH7.4 @ 4° C.). Filters were transferred to plastic gamma counter vials and bound radioactivity determined by counting (1 min) in a Clini-gamma counter.
Saturation data were analysed using the curve-fitting programmes, Radlig and Ligand.
Briefly, dilution and addition of test compounds, radioligand and cell membranes were performed using a Beckman Biomek 2000. The ability of compounds to inhibit the specific binding of to hCCK2 receptors was determined in triplicate over a range of concentrations at half-log intervals. Total and non-specific binding was determined for each compound. Each compound was tested in a minimum of three experiments. Competition data were fitted to the Hill equation using Graph-pad Prism software to obtain estimates of the IC50 (mid-point location parameter) and nH (mid-point slope parameter). Dissociation constants (KI) were determined using the Cheng & Prusoff equation (1973) to correct for the receptor occupancy by the radioligand.

gastrin (CCK2) receptors [2] = target: T2, gastrin (CCK2) receptors (Rattus norvegicus, UniProt P30553); test: gastrin (CCK2) antagonist activity in an immature rat stomach assay; conditions: pentagastrin dose-response curves, acid secretion, read-out: pKB rat stomach (converted)
T2 construct: The stomach was excised and flushed with ca. 1 ml of unbuffered physiological saline solution; from tissue; host or cells: isolated whole stomach of immature rats (ca. 21 days old)
T2 sequence (P30553 1-452): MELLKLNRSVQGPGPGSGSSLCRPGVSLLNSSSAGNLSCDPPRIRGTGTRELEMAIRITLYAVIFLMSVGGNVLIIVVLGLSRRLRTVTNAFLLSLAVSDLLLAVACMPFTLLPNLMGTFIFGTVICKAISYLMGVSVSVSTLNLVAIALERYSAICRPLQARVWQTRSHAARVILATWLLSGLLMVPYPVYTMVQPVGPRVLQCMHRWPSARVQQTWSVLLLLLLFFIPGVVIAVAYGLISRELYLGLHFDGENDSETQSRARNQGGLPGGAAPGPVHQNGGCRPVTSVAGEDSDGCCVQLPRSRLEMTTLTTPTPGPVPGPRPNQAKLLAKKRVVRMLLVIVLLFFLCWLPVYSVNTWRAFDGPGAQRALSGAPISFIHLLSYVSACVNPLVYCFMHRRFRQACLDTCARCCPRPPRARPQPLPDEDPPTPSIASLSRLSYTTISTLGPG
Summary of the method: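 Pentagastrin dose-response curves were run cumulatively 60 min after drug went into the serosal bath, itself after 120 min stabilisation. Preparation: perfused stomach from rats ca. 21 days old (33-50 g), with unbuffered saline under 100% O2 at 1 ml min^−1 and perfusate pH monitored.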

CCK2 receptor = target: T3, CCK2 receptor (Rattus norvegicus, UniProt P30553); conditions: rat cortical membranes; Nishida et al. 1994; cited from earlier work
T3 construct: host or cells: rat cortical membranes
T3 sequence (P30553 1-452): T2 sequence (P30553 1-452)

gastrin (CCK2) receptors [3] = target: T2, gastrin (CCK2) receptors; conditions: rat stomach assay; Kalindjian et al., J. Med. Chem. 1994; cited from earlier work

Structure (SMILES) | Ki [1] [nM] | Kb (gastrin (CCK2) receptors [2]) [nM] | other results
CNc1cccc(NC(=O)N[C@@H]2N=C(c3ccccn3)c3ccccc3N(CC(=O)C(C)(C)C)C2=O)c1 [YF476] | – | – | affinity pKi for the CCK2 receptor (CCK2 receptor): 10.17+0.03
O=C(CN1N=C(C2CCCCC2)c2ccccc2N(CC(=O)C2CCCC2)C1=O)Nc1cccc(C(=O)O)c1 [Example 22, 3-{2-[5-Cyclohexyl-1-(2-cyclopentyl-2-oxo-ethyl)-2-oxo-1,2-dihydro-3H-1,3,4-benzotriazepin-3-yl]-acetylamino}-benzoic acid] | 0.355 | 1.86 | –
Cc1cccc(NC(=O)N[C@@H]2N=C(c3ccccc3)c3ccccc3N(CC(=O)c3ccccc3C)C2=O)c1 [YM022, reference compound] | – | – | pKi ± s.e.mean [1]: 10.19 ± 0.03
O=C(O)CCc1cccc(NC(=O)CN2N=C(C3CCCCC3)c3ccccc3N(CC(=O)C3CCCC3)C2=O)c1 [Example 128, 3-(3-{2-[5-Cyclohexyl-1-(2-cyclopentyl-2-oxo-ethyl)-2-oxo-1,2-dihydro-3H-1,3,4-benzotriazepin-3-yl]-acetylamino}-phenyl)-propionic acid] | 0.204 | 1.23 | –
Cc1cccc(NC(=O)N[C@@H]2N=C(c3ccccc3)c3ccccc3N(C)C2=O)c1 [L-365,260] | – | – | affinity pKB for the CCK2 receptor (gastrin (CCK2) receptors [3]): 7.61±0.12
O=C(O)CSc1cccc(NC(=O)CN2N=C(C3CCCCC3)c3ccccc3N(CC(=O)C3CCCC3)C2=O)c1 [Example 58, (3-{2-[5-Cyclohexyl-1-(2-cyclopentyl-2-oxo-ethyl)-2-oxo-1,2-dihydro-3H-1,3,4-benzotriazepin-3-yl]-acetylamino}-phenylsulfanyl)-acetic acid] | – | 1.48 | pKi ± s.e.mean [1]: 9.48 ± 0.08
O=C(O)Cc1cccc(NC(=O)CN2N=C(C3CCCCC3)c3ccccc3N(CC(=O)C3CCCC3)C2=O)c1 [Example 56, (3-{2-[5-Cyclohexy-1-(2-cyclopentyl-2-oxo-ethyl)-2-oxo-1,2-dihydro-3H-1,3,4-benzotriazepin-3-yl]-acetylamino}-phenyl)-acetic acid] | 0.162 | 0.741 | –

Second part, led by results:

Ki [1] [nM] | Kb (gastrin (CCK2) receptors [2]) [nM] | Structure (SMILES) | other results
0.219 | 9.55 | CC(C)(C)C(=O)CN1C(=O)N(CC(=O)Nc2cccc(-c3nc(=O)o[nH]3)c2)N=C(C2CCCCC2)c2ccccc21 [Example 59, 2-[5-Cyclohexyl-1-(3,3-dimethyl-2-oxo-butyl)-2-oxo-1,2-dihydro-3H-1,3,4-benzotriazepin-3-yl]-N-[3-(5-oxo-Z5-dihydro-[1,2,4]oxadiazol-3-yl)-phenyl]-acetamide] | –
3240 | 2.82 | CN1C(=O)N(CC(=O)Nc2ccccc2)[N+]([O-])=C(C2CCCCC2)c2ccccc21 [Example 160, 2-(5-Cyclohexyl-1-methyl-2-oxo-4-oxy-1,2-dihydro-3H-1,3,4-benzotriazepin-3-yl)-N-phenyl-acetamide] | –
0.11 | 0.295 | O=C(CN1N=C(C2CCCCC2)c2ccccc2N(CC(=O)C2CCCC2)C1=O)Nc1cccc(-c2nc(=O)o[nH]2)c1 [Example 121, 2-[5-Cyclohexyl-1-(2-cyclopentyl-2-oxo-ethyl)-2-oxo-1,2-dihydro-3H-1,3,4-benzotriazepin-3-yl]-N-[3-(5-oxo-Z 5-dihydro-[1,2,4]oxadiazol-3-yl)-phenyl]-acetamide] | –
